Experimental data from patent US20080200403A1, “9A-Carbamoyl and Thiocarbamoyl Azalides with Anti-Inflammatory Activity” (GLAXOSMITHKLINE, priority 2005, published 2008).

Experiments:
Format in all cases: cell-based
Settings in all cases: PBL
IL-8 = assay: Inhibition of IL-8 production by stimulated human peripheral blood leukocytes in vitro
Method: (§1) Test substances used in in vitro experiments were dissolved in dimethyl sulfoxide (DMSO) (Kemika, Croatia) at concentrations of 50 mM and 10 mM, and were further diluted to final concentrations of 50 μM and 10 μM in 1 mL Dulbecco's modified Eagle medium (DMEM) supplemented with 1% heat inactivated fetal bovine serum (FBS), 1% L-glutamine, 50 U/ml penicillin, 50 μg/ml streptomycin and 2.5 μg/mL Fungizone (amphotericin B). Media and all media supplements were purchased from Gibco, Australia, except the FBS was purchased from Sigma, USA.
(§2) Peripheral blood leukocytes (PBL) were obtained from venous blood of healthy volunteers by sedimentation on 2% dextran T-500 (Amersham Biosciences, USA) and subsequent centrifugations of leukocyte rich plasma.
(§3) Peripheral blood leukocytes (PBL), isolated as described above, were seeded in a 48-well plate at a concentration of 3 to 5×10^6 cell per well in culture medium consisting of RPMI 1640 medium (Institute of Immunology, Croatia) supplemented with 10% heat-inactivated fetal calf serum (FCS, Biowhittaker, USA), 100 U/ml penicillin (Gibco, Australia), 100 μg/ml streptomycin (Gibco, Australia) and 2 mM L-glutamine (Gibco, Australia), and preincubated with the test compounds for 2 h at 37° C., in an atmosphere of 5% CO2, and 90% humidity. Then, stimuli (Sigma, USA) were added to a final concentration of 2 μg/mL lipopolysaccharide (LPS), 1 μg/mL phorbol 12-myristate 13-acetate (PMA) or 120 μg/mL zymosan. Samples were incubated overnight under conditions described above. At the end of incubation, the supernatants were transferred to eppendorf tubes and centrifuged for 10 min at 1500×g. Concentrations of human TNF-α, IL-1β, IL-6 and IL-8 were determined in cell supernatants by sandwich ELISA, using capture and detection antibodies (R&D Systems, Minneapolis, Minn.) according to the manufacturer's recommendations.
(§4) Inhibition (as percentage) was calculated using the following formula: % inhibition=(1−concentration of cytokines in sample/concentration of cytokines in positive control)×100. The positive control refers to stimulated samples, not treated with substances.

IL-6 = assay: Inhibition of IL-6 production by stimulated human peripheral blood leukocytes in vitro
Method: as §1, §2, §3, §4

IL-1α = assay: Inhibition of IL-1 production by stimulated human peripheral blood leukocytes in vitro
TNF-α = assay: Inhibition of TNF-α production by stimulated human peripheral blood leukocytes in vitro
Method: as §1, §2, §3, §4

[1] = zymosan stimulated, compound 10 μM
[2] = zymosan stimulated, compound 50 μM

Row | SMILES | Percentage of inhibition of IL-8 production (IL-8; LPS stimulated, compound 10 μM) [%] | Percentage of inhibition of IL-8 production (IL-8; LPS stimulated, compound 50 μM) [%] | Percentage of inhibition of IL-8 production (IL-8; PMA stimulated, compound 10 μM) [%] | Percentage of inhibition of IL-8 production (IL-8; PMA stimulated, compound 50 μM) [%] | Percentage of inhibition of IL-8 production (IL-8; [1]) [%] | Percentage of inhibition of IL-8 production (IL-8; [2]) [%] | Percentage of inhibition of IL-6 production (IL-6; LPS stimulated, compound 10 μM) [%] | Percentage of inhibition of IL-6 production (IL-6; LPS stimulated, compound 50 μM) [%] | Percentage of inhibition of IL-6 production (IL-6; PMA stimulated, compound 10 μM) [%] | Percentage of inhibition of IL-6 production (IL-6; PMA stimulated, compound 50 μM) [%] | Percentage of inhibition of IL-6 production (IL-6; [1]) [%] | Percentage of inhibition of IL-6 production (IL-6; [2]) [%] | Percentage of inhibition of IL-1α production (IL-1α; LPS stimulated, compound 10 μM) [%] | Percentage of inhibition of IL-1α production (IL-1α; LPS stimulated, compound 50 μM) [%] | Percentage of inhibition of IL-1α production (IL-1α; [1]) [%] | Percentage of inhibition of IL-1α production (IL-1α; [2]) [%] | Percentage of inhibition of TNF-α production (TNF-α; LPS stimulated, compound 10 μM) [%] | Percentage of inhibition of TNF-α production (TNF-α; LPS stimulated, compound 50 μM) [%] | Percentage of inhibition of TNF-α production (TNF-α; [1]) [%] | Percentage of inhibition of TNF-α production (TNF-α; [2]) [%] | other results
1 | CC[C@H]1OC(=O)[C@H](C)[C@@H](O[C@H]2C[C@@](C)(OC)[C@@H](O)[C@H](C)O2)[C@H](C)[C@@H](O[C@@H]2O[C@H](C)C[C@H](N(C)C)[C@H]2O)[C@](C)(O)C[C@@H](C)CN(C(=S)Nc2ccc(Br)cc2)[C@H](C)[C@@H](O)[C@]1(C)O [Compound 7] | 39 | 100 | 40 | 100 | 61 | 99 | 54 | 100 | 65 | 90 | 73 | 100 | 71 | 89 | 96 | 83 | 0 | 100 | 69 | 100 | Percentage of inhibition of IL-1α production (IL-1α; PMA stimulated, compound 10 μM): 0%; Percentage of inhibition of IL-1α production (IL-1α; PMA stimulated, compound 50 μM): 79%; Percentage of inhibition of TNF-α production (TNF-α; PMA stimulated, compound 10 μM): 95%; Percentage of inhibition of TNF-α production (TNF-α; PMA stimulated, compound 50 μM): 100%
2 | CC[C@H]1OC(=O)[C@H](C)[C@@H](O[C@H]2C[C@@](C)(OC)[C@@H](O)[C@H](C)O2)[C@H](C)[C@@H](O[C@@H]2O[C@H](C)C[C@H](N(C)C)[C@H]2O)[C@](C)(O)C[C@@H](C)CN(C(=O)Nc2ccc(Cl)c(C(F)(F)F)c2)[C@H](C)[C@@H](O)[C@]1(C)O [Compound 10] | 55 | 93 | 75 | 100 | 82 | 97 | 63 | 100 | 40 | 100 | 76 | 100 | 0 | 100 | 0 | 96 | 32 | 99 | 69 | 99 | Percentage of inhibition of IL-1α production (IL-1α; PMA stimulated, compound 10 μM): 0%; Percentage of inhibition of IL-1α production (IL-1α; PMA stimulated, compound 50 μM): 100%; Percentage of inhibition of TNF-α production (TNF-α; PMA stimulated, compound 10 μM): 0%; Percentage of inhibition of TNF-α production (TNF-α; PMA stimulated, compound 50 μM): 100%
3 | CC[C@H]1OC(=O)[C@H](C)C2O[C@@](C)(C[C@@H](C)CN(C(=O)NCc3ccccc3)[C@H](C)[C@@H](O)[C@]1(C)O)[C@H](O[C@@H]1O[C@H](C)C[C@H](N(C)C)[C@H]1O)[C@H]2C [Compound 11] | 0 | 52 |  |  | 23 | 75 | 0 | 66 |  |  | 72 | 100 | 48 | 38 | 85 | 77 | 0 | 51 | 13 | 88 | 
